Results from ChEMBL document CHEMBL3576831, “Discovery of a Selective TRPM8 Antagonist with Clinical Efficacy in Cold-Related Pain” (ACS Med Chem Lett, 2015).
Each block holds one compound with its values, some of them ahead of it.

Key:
[1] = target: Transient receptor potential cation channel subfamily M member 8 (Homo sapiens, UniProt Q7Z2W7); assay: Antagonist activity against human recombinant TRPM8 expressed in CHO T-rex cells assessed as inhibition of WS12-induced calcium response pre-incubated for 20 mins before WS12 addition; assay type: cell-based
[2] = target: T1, CYP1A2 (Homo sapiens, UniProt P05177); assay: Inhibition of CYP1A2 (unknown origin) at 3 uM; assay type: ADME
T1 sequence (P05177 whole entry): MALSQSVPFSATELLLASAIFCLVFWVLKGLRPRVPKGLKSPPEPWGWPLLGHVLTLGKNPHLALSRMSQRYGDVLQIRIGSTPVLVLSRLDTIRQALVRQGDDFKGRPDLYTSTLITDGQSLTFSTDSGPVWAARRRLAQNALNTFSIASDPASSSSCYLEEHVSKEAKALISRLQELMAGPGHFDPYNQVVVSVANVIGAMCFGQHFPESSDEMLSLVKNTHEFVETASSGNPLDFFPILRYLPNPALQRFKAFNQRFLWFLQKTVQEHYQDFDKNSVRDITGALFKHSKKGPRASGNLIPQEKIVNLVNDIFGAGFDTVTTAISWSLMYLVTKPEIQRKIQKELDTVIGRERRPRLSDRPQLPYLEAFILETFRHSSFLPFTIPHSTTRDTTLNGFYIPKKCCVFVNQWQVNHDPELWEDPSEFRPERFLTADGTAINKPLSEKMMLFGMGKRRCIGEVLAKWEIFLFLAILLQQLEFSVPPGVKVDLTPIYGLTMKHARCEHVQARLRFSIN

[3] = system: Liver microsome; assay: Intrinsic clearance in rat liver microsomes; assay type: ADME
[4] = system: Hepatocyte; assay: Intrinsic clearance in human hepatocytes assessed per million cells; assay type: ADME, cell-based
[5] = target: CYP2C9 (Homo sapiens, UniProt P11712); assay: Inhibition of CYP2C9 (unknown origin) at 3 uM; assay type: ADME
[6] = target: CYP3A4 (Homo sapiens, UniProt P08684); assay: Inhibition of CYP3A4 (unknown origin) at 3 uM; assay type: ADME
[7] = target: CYP2D6 (Homo sapiens, UniProt P10635); assay: Inhibition of CYP2D6 (unknown origin) at 3 uM; assay type: ADME
[8] = Lipophilicity, log D of the compound; assay type: physicochemical; conditions: octanol/water
[9] = Intrinsic clearance in human liver microsomes; assay type: ADME; conditions: read-out: CLH
[10] = target: T2, CYP2C8 (Homo sapiens, UniProt P10632); assay: Inhibition of CYP2C8 (unknown origin) at 3 uM; assay type: ADME
T2 sequence (P10632 whole entry): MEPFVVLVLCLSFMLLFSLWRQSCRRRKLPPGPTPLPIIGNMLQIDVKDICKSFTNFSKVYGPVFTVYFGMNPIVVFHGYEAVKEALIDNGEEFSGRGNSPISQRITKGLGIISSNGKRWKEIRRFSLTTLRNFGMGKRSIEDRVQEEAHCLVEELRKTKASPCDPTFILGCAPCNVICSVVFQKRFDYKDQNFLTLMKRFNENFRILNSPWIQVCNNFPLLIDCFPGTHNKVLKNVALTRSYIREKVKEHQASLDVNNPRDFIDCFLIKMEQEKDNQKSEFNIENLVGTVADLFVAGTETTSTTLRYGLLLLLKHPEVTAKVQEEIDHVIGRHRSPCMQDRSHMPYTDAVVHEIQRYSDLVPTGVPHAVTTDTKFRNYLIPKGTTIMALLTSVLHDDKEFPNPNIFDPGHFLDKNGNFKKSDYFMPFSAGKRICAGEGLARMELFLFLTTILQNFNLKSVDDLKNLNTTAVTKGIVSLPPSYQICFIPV

[11] = target: Voltage-gated inwardly rectifying potassium channel KCNH2 (Homo sapiens, UniProt Q12809); assay: Inhibition of dofetilide binding to human ERG
Sequence of Voltage-gated inwardly rectifying potassium channel KCNH2 (Q12809 whole entry): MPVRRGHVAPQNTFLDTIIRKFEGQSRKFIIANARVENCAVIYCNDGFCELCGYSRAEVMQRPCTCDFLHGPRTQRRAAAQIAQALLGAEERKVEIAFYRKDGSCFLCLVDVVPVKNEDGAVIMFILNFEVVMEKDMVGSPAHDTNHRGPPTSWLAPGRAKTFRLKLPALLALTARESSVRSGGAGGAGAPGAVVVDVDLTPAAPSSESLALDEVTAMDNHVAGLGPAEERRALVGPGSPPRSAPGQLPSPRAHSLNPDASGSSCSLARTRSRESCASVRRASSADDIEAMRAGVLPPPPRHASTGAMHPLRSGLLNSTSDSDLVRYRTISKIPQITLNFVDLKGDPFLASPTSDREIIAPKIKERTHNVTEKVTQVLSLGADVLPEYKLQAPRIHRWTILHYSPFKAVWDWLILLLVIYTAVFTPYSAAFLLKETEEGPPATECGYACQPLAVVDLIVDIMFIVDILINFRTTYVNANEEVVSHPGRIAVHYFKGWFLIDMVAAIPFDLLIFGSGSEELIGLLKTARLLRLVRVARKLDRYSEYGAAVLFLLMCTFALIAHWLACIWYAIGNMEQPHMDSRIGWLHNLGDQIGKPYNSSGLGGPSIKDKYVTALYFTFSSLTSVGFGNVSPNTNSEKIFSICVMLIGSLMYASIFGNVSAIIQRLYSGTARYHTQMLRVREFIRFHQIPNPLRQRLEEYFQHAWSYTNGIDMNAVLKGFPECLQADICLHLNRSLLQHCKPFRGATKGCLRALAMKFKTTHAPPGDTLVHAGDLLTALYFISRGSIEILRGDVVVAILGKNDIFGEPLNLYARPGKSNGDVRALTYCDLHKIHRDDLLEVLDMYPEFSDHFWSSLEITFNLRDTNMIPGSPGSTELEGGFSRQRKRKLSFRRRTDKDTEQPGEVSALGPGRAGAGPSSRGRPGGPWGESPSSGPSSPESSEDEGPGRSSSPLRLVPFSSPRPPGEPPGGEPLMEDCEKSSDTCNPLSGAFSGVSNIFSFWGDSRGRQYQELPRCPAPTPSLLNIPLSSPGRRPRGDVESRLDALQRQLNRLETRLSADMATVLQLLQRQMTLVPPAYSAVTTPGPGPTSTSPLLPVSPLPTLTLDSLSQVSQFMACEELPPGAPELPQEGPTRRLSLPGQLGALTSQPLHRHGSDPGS

Sequence of Transient receptor potential cation channel subfamily M member 8 (Q7Z2W7 whole entry): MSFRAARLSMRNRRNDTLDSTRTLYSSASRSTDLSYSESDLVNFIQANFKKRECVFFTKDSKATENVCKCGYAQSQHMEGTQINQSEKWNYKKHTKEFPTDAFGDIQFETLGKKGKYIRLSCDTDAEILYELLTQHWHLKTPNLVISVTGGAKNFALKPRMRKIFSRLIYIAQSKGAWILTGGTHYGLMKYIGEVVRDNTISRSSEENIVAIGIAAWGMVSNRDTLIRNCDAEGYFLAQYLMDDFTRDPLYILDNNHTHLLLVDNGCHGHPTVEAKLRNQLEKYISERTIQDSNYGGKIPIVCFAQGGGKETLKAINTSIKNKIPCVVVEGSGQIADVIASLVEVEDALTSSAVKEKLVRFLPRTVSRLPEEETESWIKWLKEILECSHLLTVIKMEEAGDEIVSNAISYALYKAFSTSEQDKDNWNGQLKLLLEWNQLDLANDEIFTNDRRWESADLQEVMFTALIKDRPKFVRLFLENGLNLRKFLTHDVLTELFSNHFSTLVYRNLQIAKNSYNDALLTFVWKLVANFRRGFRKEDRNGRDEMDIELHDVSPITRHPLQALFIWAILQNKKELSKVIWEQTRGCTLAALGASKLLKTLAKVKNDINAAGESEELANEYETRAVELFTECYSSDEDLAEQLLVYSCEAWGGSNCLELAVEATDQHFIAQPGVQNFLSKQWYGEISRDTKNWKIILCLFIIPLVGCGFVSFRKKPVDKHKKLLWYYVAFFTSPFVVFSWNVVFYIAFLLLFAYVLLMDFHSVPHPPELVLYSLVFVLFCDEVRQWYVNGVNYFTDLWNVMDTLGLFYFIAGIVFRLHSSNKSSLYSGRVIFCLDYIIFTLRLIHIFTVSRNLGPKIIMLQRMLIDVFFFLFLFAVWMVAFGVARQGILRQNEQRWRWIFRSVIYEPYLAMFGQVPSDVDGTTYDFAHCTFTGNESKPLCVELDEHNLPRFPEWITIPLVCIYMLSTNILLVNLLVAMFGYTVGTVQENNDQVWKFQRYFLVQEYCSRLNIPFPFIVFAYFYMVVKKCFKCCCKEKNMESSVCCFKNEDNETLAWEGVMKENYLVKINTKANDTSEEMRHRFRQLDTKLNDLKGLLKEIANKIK
Sequence of CYP3A4 (P08684 whole entry): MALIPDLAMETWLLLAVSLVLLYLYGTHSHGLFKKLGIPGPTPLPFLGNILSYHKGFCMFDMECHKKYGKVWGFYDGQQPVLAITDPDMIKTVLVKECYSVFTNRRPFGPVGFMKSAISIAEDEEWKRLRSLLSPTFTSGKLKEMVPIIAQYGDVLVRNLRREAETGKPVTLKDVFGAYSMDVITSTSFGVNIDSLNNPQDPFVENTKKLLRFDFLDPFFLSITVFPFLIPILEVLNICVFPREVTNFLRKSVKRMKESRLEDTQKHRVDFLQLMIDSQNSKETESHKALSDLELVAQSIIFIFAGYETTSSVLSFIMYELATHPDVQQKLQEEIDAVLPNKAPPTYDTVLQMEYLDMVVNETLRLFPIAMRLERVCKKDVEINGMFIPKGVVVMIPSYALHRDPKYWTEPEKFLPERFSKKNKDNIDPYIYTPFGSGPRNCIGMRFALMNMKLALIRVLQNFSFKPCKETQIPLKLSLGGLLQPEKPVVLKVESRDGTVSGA
Sequence of CYP2C9 (P11712 whole entry): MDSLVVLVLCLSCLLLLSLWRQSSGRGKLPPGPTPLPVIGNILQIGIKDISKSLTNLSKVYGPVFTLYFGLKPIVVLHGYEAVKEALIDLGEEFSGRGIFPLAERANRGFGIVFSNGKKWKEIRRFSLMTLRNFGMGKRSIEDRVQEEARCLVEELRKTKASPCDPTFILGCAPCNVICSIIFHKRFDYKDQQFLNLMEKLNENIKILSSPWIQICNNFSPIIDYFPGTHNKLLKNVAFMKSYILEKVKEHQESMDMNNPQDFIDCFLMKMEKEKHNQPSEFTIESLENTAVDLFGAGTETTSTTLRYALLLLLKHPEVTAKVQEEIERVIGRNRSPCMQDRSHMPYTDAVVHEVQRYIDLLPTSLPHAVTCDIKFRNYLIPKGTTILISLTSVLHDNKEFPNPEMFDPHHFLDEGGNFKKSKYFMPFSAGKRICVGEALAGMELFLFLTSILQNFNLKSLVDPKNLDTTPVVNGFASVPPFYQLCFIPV
Sequence of CYP2D6 (P10635 whole entry): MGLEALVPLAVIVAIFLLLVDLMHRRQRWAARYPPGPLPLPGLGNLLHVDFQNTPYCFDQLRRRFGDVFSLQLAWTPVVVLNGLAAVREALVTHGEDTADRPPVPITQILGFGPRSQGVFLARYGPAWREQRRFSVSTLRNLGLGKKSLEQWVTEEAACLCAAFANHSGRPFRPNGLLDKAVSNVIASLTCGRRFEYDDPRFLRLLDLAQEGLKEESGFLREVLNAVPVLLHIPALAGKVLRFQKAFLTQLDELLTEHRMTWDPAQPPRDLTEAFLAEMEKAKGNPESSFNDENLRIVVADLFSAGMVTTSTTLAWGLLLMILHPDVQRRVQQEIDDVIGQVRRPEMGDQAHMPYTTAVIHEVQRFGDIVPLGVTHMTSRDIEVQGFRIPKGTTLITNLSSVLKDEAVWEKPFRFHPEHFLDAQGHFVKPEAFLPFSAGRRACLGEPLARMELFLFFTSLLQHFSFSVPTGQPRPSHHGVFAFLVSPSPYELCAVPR

IC50 [1]: > 3250 nM
SMILES: C[C@H](c1ccc(F)cc1)N(Cc1cccc(CC(=O)O)c1)C(=O)c1cnc2ccccc2c1

inhibition at 3 µM [2]: 0%
microsomal CLint [3]: 31 µL/min/mg
hepatocyte intrinsic clearance [4]: < 2 µL/min/million cells
inhibition at 3 µM [5]: 0%
inhibition at 3 µM [6]: 0%
IC50 [1]: 60 nM
inhibition at 3 µM [7]: 0%
logD [8]: 1.1
microsomal CLint [9]: 11 µL/min/mg
inhibition at 3 µM [10]: 0%
SMILES: C[C@H](c1ccc(F)cc1F)N(Cc1cccc(C(=O)O)c1)C(=O)c1cc2ccccc2cn1

IC50 [1]: > 9360 nM
SMILES: O=C(O)c1cccc(CN(Cc2ccc(F)cc2)C(=O)c2cnc3ccccc3c2)c1

IC50 [1]: > 10000 nM
SMILES: CC(C)(c1ccc(F)cc1)N(Cc1cccc(C(=O)O)c1)C(=O)c1cnc2ccccc2c1

IC50 [1]: 1610 nM
SMILES: C[C@H](c1ccc(F)cc1)N(Cc1cccc(-c2nn[nH]n2)c1)C(=O)c1cnc2ccccc2c1

IC50 [1]: 1160 nM
SMILES: C[C@H](c1ccc(F)cc1)N(Cc1cccc(C(=O)O)n1)C(=O)c1cnc2ccccc2c1

IC50 [1]: 951 nM
SMILES: C[C@H](c1ccc(F)cc1)N(Cc1cccc(C(=O)O)c1)C(=O)c1cc2cc[nH]c2cn1

IC50 [1]: 3620 nM
SMILES: CC(c1ccc(F)cc1)N(Cc1cccc(C(=O)O)c1)C(=O)c1ccc2c(c1)CCO2 (racemic)

Second part, the compound before the results:

SMILES: Cc1ccc(CN(C(=O)c2cnc3ccccc3c2)[C@H](C)c2ccc(F)cc2)cc1C(=O)O
IC50 [1]: > 7820 nM

SMILES: CC[C@H](c1ccc(F)cc1F)N(Cc1cccc(C(=O)O)c1)C(=O)c1cc2ccccn2n1
inhibition at 3 µM [2]: 0%
microsomal CLint [3]: 41 µL/min/mg
hepatocyte intrinsic clearance [4]: 48 µL/min/million cells
inhibition at 3 µM [5]: 0%
inhibition at 3 µM [6]: 0%
IC50 [1]: 123 nM
inhibition at 3 µM [7]: 0%
logD [8]: 1.2
microsomal CLint [9]: 28 µL/min/mg
inhibition at 3 µM [10]: 0%

SMILES: C[C@H](c1ccc(F)cc1)N(Cc1cccc(C(=O)O)c1)C(=O)c1cccc(-c2ccccc2)c1
IC50 [1]: 837 nM

SMILES: C[C@H](c1ccc(F)cc1)N(Cc1cc(C(=O)O)ccc1F)C(=O)c1cnc2ccccc2c1
IC50 [1]: 446 nM

SMILES: C[C@H](c1ccc(F)cc1F)N(Cc1cccc(C(=O)O)c1)C(=O)c1cc2ccccn2n1
microsomal CLint [3]: 85 µL/min/mg
hepatocyte intrinsic clearance [4]: 31 µL/min/million cells
IC50 [1]: 234 nM
logD [8]: 0.9
microsomal CLint [9]: 23 µL/min/mg

SMILES: CC[C@H](c1ccc(C)o1)N(Cc1cccc(C(=O)O)c1)C(=O)c1cnc2ccccc2c1
IC50 [1]: 328 nM

SMILES: CC[C@H](c1ccc(F)cc1)N(Cc1cccc(C(=O)O)c1)C(=O)c1cnc2ccccc2c1
microsomal CLint [3]: < 14 µL/min/mg
hepatocyte intrinsic clearance [4]: 28 µL/min/million cells
Ki [11]: > 15200 nM
IC50 [1]: 202 nM
logD [8]: 1.3
microsomal CLint [9]: < 8 µL/min/mg
